Experimental data reported in ChEMBL document CHEMBL1201862, “PubChem BioAssay data set” (2004).
Activity calls are given as the source filed them.

Legend:
[1] = Luminescence Cell-Based Dose Response to Identify Activators of Luciferase Translation or Activity in H4-C Neuroglioblastoma Cells. [Related pubchem assays: 1829 (Project Summary), 1814 (Primary HTS)]; format: functional
[2] = Luminescence Cell-Based Dose Response HTS to Identify Activators of Luciferase Translation or Activity in H4 […] Cells. [Related pubchem assays: 1829 (Project Summary), 1814 (Primary HTS)]; format: functional
[3] = Luminescence Cell-Based Dose Response to Identify Activators of 5'UTR Stem-Loop Driven Prion Protein mRNA Translation in H4-C Neuroglioblastoma Cells. [Related pubchem assays: 1829 (Project Summary), 1814 (Primary HTS)]; format: functional
[4] = Luminescence Cell-Based Dose Confirmation HTS to Identify Activators of 5'UTR Stem-Loop Driven Alpha-Synuclein mRNA Translation in H4 Neuroglioblastoma Cells. [Related pubchem assays: 1829 (Project Summary), 1814 (Primary HTS)]; format: functional
[5] = test system: H4; assay: Luminescence Cell-Based Dose Response HTS to Identify Activators of 5'UTR Stem-Loop Driven Prion Protein mRNA Translation in H4 Neuroglioblastoma Cells. [Related pubchem assays: 1829 (Project Summary), 1814 (Primary HTS)]; format: functional; settings: Homo sapiens
[6] = Luminescence Cell-Based Dose Confirmation to Identify Activators of 5'UTR Stem-Loop Driven Alpha-Synuclein mRNA Translation in H4 Neuroglioblastoma Cells. [Related pubchem assays: 1829 (Project Summary), 1814 (Primary HTS)]; format: functional
[7] = target: T1, Protein Tat (Human immunodeficiency virus type 1 group M subtype B (isolate HXB2)(HIV-1), UniProt P04608); format: functional;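 note: tat binding to TAR RNA read out by fluorescence polarization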
T1 sequence (P04608 whole entry): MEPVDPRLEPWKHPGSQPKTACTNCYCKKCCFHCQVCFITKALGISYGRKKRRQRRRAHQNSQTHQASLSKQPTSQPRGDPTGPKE

[8] = target: Cytochrome P450 3A4 (Homo sapiens, UniProt P08684); settings: Potency;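 note: confirmatory qHTS run detecting inhibitors and substrates of CYP3A4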
[9] = target: Peroxisome proliferator-activated receptor gamma/Nuclear receptor coactivator 1 (Homo sapiens, UniProt P37231); format: functional;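 note: agonist potency as compounds enhance coactivator SRC-1 recruitment to PPARgamma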
[10] = target: Peroxisome proliferator-activated receptor gamma/Nuclear receptor coactivator 2 (Homo sapiens, UniProt P37231); format: functional;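 note: agonist potency for raising coactivator recruitment to the receptor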
[11] = target: Peroxisome proliferator-activated receptor gamma/Nuclear receptor coactivator 3 (Homo sapiens, UniProt P37231); format: functional;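 note: agonist potency for raising coactivator recruitment to the receptor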
[12] = target: Luciferin 4-monooxygenase (Photinus pyralis, UniProt P08659); assay: inhibition of purified Photinus pyralis luciferase – biochemical, luminescence, dose response (AID 1891)
[13] = target: T2, Protein skinhead-1 (Caenorhabditis elegans, UniProt P34707); format: functional
T2 sequence (P34707 whole entry): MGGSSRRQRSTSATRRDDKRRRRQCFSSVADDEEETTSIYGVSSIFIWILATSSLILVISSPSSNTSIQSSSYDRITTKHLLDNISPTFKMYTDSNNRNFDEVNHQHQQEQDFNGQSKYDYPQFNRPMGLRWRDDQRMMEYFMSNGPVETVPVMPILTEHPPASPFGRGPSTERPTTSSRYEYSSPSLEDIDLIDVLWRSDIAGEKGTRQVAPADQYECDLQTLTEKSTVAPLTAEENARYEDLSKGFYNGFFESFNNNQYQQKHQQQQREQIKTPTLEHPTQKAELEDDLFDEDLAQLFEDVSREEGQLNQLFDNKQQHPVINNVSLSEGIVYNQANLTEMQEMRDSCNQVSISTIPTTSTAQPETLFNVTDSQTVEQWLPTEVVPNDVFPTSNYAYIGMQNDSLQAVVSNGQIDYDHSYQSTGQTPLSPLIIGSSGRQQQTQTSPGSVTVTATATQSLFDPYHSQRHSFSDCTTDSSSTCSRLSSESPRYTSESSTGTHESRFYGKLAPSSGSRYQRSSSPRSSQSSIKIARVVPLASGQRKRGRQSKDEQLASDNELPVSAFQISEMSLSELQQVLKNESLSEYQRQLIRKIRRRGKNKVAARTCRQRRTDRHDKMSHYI

[14] = blockade of melanocortin 4 receptor signaling – cell-based, plate reader, cherry pick, counter-screen for LGR2 antagonist project, dose response (AID 743444); format: functional;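 note: transfected HEK 293 cells stimulated with alpha-MSH peptide; potency of inhibitors of the alpha-MSH evoked signal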
[15] = test system: BJ; assay: BJ-TERT-LT-ST fibroblast viability loss – cell-based, RAS-independent, luminescence, dose response (AID 1935); format: functional; settings: Homo sapiens;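 note: BJ fibroblasts immortalized with TERT plus LT and ST oncogenes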
[16] = DRD fibroblast viability loss – cell-based, non-viral oncogenic, luminescence, dose response (AID 1934); format: functional; settings: Homo sapiens
[17] = A549 cell cytotoxicity, dose response, cytotoxicity control, plate reader, cherry-pick, antagonist series (AID 743412); format: functional, cell-based
[18] = viability loss in HEK293 cells – cell-based, plate reader, cherry-picked samples, cytotoxicity control, dose response (AID 743446); format: functional
[19] = test system: BJ; assay: BJ-TERT fibroblast viability loss – cell-based, RAS-independent, luminescence, dose response (AID 1933); format: functional; settings: Homo sapiens
[20] = test system: BJ; assay: cells; format: functional, cell-based; settings: Homo sapiens
[21] = Luminescence Cell-Based Dose Confirmation HTS to Identify Inhibitors of Platelet Dense Granule Release. [Related pubchem assays: 1663 (Primary HTS), 1678 (Summary of Project)]; format: functional
[22] = blockers of bursicon-stimulated LGR2 cAMP reporter – cell-based, HEK293, CRE-luciferase reporter, cherry pick, set 2, dose response (AID 743343); format: functional;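 note: transfected cells were stimulated with diluted bursicon conditioned medium after compound addition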
[23] = toxicity toward HepG2 liver cells – cell-based, plate reader, cherry-pick, antagonist series, cytotoxicity control, dose response (AID 743416); format: functional
[24] = target: T3, Leucine aminopeptidase (Plasmodium falciparum 3D7, UniProt Q8IL11); assay: P. falciparum M17LAP inhibitors, primary screen, biochemical, fluorogenic H-Leu-NHMec substrate, 1536-well (AID 1619); format: functional
T3 sequence (Q8IL11 whole entry): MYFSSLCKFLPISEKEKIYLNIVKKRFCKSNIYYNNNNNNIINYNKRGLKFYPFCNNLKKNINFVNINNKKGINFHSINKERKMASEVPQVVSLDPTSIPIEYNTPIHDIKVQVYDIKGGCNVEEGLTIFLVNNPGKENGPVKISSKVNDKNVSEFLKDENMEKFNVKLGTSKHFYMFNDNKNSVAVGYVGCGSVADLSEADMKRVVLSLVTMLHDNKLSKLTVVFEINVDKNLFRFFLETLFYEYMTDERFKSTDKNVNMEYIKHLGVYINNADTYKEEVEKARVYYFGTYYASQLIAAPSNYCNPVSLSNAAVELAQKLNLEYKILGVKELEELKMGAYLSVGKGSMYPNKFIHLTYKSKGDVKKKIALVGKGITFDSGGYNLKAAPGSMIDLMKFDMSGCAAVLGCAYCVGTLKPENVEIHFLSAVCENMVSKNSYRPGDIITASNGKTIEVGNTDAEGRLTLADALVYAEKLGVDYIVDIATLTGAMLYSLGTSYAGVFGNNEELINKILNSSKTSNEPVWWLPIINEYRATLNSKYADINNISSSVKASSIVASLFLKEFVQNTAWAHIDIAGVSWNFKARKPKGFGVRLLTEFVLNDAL

[25] = loss of viability in HepG2 cells – cell-based, CellTiter-Glo, cherry-picked, cytotoxicity control for Shn3 inhibitor project, dose response (AID 624134); format: functional
[26] = reduction of Shn3 3'UTR-driven luciferase in osteoblasts – cell-based, Clone20 osteoblasts, firefly luciferase, cherry-picked, dose response (AID 624132); format: functional;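 note: firefly luciferase luminescence from reporter carrying the Shn3 3'UTR in osteoblasts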
[27] = non-specific 3'UTR reporter inhibition in Clone20-Shn3RL – cell-based, Renilla luciferase, cherry-picked, counter-screen for Shn3 inhibitor project, dose response (AID 624133); format: functional
[28] = IGROV1 cell killing – plate reader, dry powder samples, PAX8 inhibitor project, dose response (AID 743043); format: functional, cell-based; settings: IGROV-1
[29] = OVCAR8 cell viability loss – plate reader, dry powder samples, PAX8 project, dose response (AID 743197); format: functional, cell-based; settings: OVCAR-8
[30] = OVCAR-3 cell viability loss – plate reader, dry powder samples, PAX8 inhibitor project, dose response (AID 743044); format: functional, cell-based
[31] = target: Paired box protein Pax-8 (Homo sapiens, UniProt Q06710); assay: PAX8 transcriptional activity inhibition in RMG-I – RMG-I cells, luciferase, cherry-pick, dose response (AID 687027); format: functional, cell-based;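 note: luciferase reporter driven by Pax8 target thyroperoxidase promoter measured by SteadyGlo luminescence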
[32] = target: T4, Bifunctional protein GlmU (Mycobacterium tuberculosis, UniProt P9WMN3); assay: Inhibitors of Mycobacterial Glucosamine-1-phosphate acetyl transferase (GlmU). Secondary screen.; set-up: species or system Mycobacterium tuberculosis H37Rv
T4 sequence (P9WMN3 whole entry): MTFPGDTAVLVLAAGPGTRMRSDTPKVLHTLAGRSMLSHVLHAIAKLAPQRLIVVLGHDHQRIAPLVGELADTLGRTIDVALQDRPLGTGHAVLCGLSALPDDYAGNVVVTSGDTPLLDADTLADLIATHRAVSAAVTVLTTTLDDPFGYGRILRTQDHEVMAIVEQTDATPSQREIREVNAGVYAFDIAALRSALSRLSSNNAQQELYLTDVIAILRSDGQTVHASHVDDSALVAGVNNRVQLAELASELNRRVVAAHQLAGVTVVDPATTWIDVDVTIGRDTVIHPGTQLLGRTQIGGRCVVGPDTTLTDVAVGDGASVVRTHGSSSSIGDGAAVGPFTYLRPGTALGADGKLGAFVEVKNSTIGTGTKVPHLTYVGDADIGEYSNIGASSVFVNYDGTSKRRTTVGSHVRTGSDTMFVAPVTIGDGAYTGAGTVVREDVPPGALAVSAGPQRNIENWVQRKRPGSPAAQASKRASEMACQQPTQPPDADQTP

[33] = IC50 of insulin release inhibition, rat insulinoma INS-1E line, 5 mM glucose, cell-based (AID 1117331); format: functional
[34] = Potency on glucagon-like peptide 1 release, dose-response in NCI-H716 cell line, half maximal inhibitory concentration (AID 1117344); format: functional, cell-based
[35] = glucagon-like peptide-1 release potency in STC-1, concentration-response, half-maximal inhibitory concentration in the STC-1 line (AID 1117345); format: functional, cell-based
[36] = target: Cytochrome P450 2C9 (Homo sapiens, UniProt P11712)
Sequence of Cytochrome P450 2C9 (P11712 whole entry): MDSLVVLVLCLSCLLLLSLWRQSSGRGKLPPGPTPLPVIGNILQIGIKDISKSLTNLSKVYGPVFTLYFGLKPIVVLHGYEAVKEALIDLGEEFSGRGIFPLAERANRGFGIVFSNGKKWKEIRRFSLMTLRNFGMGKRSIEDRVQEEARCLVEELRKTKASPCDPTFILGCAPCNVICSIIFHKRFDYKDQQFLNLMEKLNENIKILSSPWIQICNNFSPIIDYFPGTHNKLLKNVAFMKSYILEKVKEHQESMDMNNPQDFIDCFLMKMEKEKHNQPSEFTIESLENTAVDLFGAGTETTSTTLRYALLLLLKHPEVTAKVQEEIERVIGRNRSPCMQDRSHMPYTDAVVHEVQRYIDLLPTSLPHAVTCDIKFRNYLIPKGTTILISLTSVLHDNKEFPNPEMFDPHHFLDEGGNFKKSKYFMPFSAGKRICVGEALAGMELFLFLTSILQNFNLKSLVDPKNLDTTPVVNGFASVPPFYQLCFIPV

Sequence of Cytochrome P450 3A4 (P08684 whole entry): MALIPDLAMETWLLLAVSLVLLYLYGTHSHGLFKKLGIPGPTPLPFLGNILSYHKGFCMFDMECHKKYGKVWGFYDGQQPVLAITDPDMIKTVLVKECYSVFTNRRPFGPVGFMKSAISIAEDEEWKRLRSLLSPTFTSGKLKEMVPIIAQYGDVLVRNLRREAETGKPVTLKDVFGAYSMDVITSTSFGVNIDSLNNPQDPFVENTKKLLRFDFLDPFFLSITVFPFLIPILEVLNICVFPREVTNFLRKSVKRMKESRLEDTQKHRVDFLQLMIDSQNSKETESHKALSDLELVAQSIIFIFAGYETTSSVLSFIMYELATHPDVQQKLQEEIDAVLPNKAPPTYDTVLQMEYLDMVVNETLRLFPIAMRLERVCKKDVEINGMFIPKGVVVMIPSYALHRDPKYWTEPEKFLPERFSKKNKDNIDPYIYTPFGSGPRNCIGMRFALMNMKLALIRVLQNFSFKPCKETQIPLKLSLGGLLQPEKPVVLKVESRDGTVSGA
Sequence of Peroxisome proliferator-activated receptor gamma/Nuclear receptor coactivator 1 (P37231 whole entry): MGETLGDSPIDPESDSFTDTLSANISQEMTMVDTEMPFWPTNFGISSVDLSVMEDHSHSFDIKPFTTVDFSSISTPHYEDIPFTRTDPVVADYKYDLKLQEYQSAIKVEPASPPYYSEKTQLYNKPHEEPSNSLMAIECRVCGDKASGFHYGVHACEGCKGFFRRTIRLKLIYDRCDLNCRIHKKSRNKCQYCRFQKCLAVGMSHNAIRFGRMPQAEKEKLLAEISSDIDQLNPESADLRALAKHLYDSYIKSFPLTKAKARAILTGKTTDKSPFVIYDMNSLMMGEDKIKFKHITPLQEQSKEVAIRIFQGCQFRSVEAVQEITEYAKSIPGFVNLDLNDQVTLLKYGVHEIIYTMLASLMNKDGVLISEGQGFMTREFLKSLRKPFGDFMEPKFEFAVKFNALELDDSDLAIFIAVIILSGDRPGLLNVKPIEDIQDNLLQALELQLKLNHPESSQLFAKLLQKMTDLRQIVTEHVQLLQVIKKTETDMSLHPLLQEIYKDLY
Sequence of Peroxisome proliferator-activated receptor gamma/Nuclear receptor coactivator 1 (Q15788 whole entry, further chain): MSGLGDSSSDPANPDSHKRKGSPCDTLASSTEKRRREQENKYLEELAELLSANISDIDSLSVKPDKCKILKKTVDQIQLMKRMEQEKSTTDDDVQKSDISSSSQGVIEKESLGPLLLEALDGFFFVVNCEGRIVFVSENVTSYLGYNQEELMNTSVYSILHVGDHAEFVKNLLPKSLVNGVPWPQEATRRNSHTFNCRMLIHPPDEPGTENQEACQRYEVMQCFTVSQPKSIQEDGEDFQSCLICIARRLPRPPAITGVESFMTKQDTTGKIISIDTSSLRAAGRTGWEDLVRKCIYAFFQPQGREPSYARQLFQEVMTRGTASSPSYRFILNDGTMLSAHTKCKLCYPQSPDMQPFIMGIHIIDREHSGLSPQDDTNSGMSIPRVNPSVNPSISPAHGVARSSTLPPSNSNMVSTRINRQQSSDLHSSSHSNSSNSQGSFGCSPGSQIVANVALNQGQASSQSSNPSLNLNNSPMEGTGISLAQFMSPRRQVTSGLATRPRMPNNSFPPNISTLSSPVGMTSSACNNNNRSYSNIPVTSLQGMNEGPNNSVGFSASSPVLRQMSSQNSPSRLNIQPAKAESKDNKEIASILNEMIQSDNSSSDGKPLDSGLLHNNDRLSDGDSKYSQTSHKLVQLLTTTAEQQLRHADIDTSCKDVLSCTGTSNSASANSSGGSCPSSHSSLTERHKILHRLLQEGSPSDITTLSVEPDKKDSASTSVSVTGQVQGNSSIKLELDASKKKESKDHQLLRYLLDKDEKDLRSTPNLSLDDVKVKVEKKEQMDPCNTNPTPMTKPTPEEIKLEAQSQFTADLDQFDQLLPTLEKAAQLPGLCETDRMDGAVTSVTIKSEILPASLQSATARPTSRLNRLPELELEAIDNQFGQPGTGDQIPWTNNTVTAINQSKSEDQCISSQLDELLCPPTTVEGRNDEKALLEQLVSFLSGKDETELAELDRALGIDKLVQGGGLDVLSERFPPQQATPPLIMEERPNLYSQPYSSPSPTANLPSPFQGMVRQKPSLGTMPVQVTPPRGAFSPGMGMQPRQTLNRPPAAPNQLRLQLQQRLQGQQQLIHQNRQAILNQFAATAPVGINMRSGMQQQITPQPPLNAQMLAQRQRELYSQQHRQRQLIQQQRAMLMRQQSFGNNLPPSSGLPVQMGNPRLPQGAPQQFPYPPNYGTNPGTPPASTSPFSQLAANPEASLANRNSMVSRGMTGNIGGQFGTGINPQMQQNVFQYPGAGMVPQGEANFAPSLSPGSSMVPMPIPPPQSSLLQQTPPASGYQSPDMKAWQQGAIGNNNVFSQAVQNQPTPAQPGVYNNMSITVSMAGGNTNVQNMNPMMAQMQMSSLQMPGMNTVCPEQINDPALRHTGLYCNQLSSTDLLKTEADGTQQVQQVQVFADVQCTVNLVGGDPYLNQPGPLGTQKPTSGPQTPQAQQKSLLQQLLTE
Sequence of Peroxisome proliferator-activated receptor gamma/Nuclear receptor coactivator 3 (P37231 whole entry): as the sequence (P37231 whole entry) above
Sequence of Peroxisome proliferator-activated receptor gamma/Nuclear receptor coactivator 3 (Q9Y6Q9 whole entry, further chain): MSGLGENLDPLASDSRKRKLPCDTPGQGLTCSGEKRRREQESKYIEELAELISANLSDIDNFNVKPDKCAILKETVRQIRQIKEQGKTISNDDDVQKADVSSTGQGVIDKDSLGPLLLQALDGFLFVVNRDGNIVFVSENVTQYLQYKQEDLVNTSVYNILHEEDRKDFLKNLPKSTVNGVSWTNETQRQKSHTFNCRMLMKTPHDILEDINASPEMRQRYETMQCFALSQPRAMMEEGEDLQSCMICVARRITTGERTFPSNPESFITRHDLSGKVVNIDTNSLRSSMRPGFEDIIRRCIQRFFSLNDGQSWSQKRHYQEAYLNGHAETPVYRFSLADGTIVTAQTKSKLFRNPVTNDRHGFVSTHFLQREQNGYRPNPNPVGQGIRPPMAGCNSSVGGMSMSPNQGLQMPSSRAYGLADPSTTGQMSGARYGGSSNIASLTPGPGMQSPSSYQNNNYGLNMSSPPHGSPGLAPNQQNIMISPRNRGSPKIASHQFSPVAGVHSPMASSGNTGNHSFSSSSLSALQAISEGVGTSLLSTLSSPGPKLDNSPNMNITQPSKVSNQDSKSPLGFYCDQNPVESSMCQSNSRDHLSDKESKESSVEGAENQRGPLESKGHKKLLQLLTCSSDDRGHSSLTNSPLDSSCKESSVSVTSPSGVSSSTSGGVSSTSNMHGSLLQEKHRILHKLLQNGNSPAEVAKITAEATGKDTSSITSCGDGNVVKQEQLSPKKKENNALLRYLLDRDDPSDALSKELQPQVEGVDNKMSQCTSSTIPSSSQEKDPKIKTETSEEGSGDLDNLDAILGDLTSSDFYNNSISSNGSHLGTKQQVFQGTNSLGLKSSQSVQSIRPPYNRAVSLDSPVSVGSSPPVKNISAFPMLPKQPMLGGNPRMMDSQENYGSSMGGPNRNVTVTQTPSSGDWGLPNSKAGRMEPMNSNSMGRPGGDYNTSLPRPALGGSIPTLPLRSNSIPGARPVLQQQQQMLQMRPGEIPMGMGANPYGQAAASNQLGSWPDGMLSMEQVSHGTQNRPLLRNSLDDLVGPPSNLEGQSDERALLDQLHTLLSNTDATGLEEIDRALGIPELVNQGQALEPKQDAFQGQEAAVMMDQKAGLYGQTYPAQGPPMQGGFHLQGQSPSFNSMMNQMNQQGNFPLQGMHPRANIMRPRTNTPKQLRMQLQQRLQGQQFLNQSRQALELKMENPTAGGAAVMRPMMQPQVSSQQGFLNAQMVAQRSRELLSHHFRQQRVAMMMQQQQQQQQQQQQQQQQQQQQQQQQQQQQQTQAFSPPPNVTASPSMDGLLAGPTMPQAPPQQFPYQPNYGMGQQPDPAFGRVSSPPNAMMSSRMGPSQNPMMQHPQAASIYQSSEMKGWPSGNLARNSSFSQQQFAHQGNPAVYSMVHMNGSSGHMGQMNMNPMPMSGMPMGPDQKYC

O=C(CSc1nnnn1C1CCCC1)N1CCCCC1
EC50 [1]: 0.57 µM (active) | EC50 [2]: < 0.1 µM (active) | EC50 [3]: 0.537 µM (active) | EC50 [4]: 0.118 µM (active) | EC50 [5]: > 120 µM (not active) | EC50 [6]: 0.524 µM (active)

COc1ccc2cc(C3C(C#N)=C(N)OC(C)=C3C(C)=O)c(Cl)nc2c1 (stereo unspecified)
IC50 [7]: > 100 µM (active)

COc1ccc(-c2nc3c(c4c2CC(C)OC4)CN(CCC(C)C)CC3)cc1 (stereo unspecified)
AC50 [8]: 3.16 µM (inconclusive)

O=C(NC1CCCCCCC1)NC1CCCCC1
EC50 [1]: 1.12 µM (active) | EC50 [2]: 5.81 µM (active) | EC50 [3]: 1.84 µM (active) | EC50 [5]: > 120 µM (not active) | EC50 [6]: > 12 µM (not active)

CC1(C)Cc2c(C#N)c(SCC(=O)c3ccccc3)nc(N3CCOCC3)c2CO1
EC50 [9]: > 79.4 µM (not active) | EC50 [10]: 79.4 µM (not active) | EC50 [11]: > 79.4 µM (not active)

CC(=O)c1cnc2cc(-c3ccc(C)cc3)nn2c1C
EC50 [1]: 0.319 µM (active) | EC50 [2]: < 0.1 µM (active) | EC50 [3]: 0.223 µM (active) | EC50 [6]: 0.297 µM (active)

CCCSc1ccc2nc(-c3ccccc3)cn2c1
EC50 [12]: 0.709 µM (active) | IC50 [13]: > 100 µM (inactive) | AC50 [14]: 1.2 µM (active) | EC50 [15]: > 150 µM (not active) | EC50 [16]: 20.9 µM (active) | AC50 [17]: 39.3 µM (active) | AC50 [18]: 39.5 µM (active) | EC50 [19]: 22.8 µM (active) | EC50 [20]: 19.6 µM (active) | EC50 [21]: 2.14 µM (active) | AC50 [22]: 0.951 µM (active) | AC50 [23]: 20.7 µM (active)

O=C(CN1C(=O)c2ccccc2S1(=O)=O)NCCSc1ccccc1
IC50 [24]: 5.54 µM (active)

FC(F)(F)c1ccc(CN2C[C@@H]3C(c4ccc(C(F)(F)F)cc4)C4(c5ccccc5)CC3(C4)[C@H]2c2ccccc2)cc1 (stereo partly specified)
AC50 [8]: 0.316 µM (inconclusive)

CC(=O)c1cccc(NC(=O)c2cc3ccccn3n2)c1
EC50 [9]: > 79.4 µM (not active) | EC50 [10]: > 79.4 µM (not active) | EC50 [11]: > 79.4 µM (not active)

C=C(C)C(O)/C=C/CCCCCCC (stereo unspecified)
AC50 [8]: 3.98 µM (inconclusive)

CCN1CCN(C(=O)CN(C)S(=O)(=O)c2ccc(OC)c(C)c2)CC1
IC50 [7]: > 100 µM (active)

CCCCNc1c(-c2cccc(-c3ccc(OC)cc3)c2)nc2cc(C)ccn12
AC50 [14]: 10.9 µM (active) | AC50 [25]: 38.9 µM (active) | AC50 [26]: 12.1 µM (active) | AC50 [27]: 10.6 µM (active) | AC50 [17]: 17.7 µM (active) | AC50 [18]: 14.5 µM (active) | AC50 [22]: 8.28 µM (active) | AC50 [23]: 21.9 µM (active)

C[C@@H]1CCCCO[C@@H](CN(C)Cc2ccc(C(F)(F)F)cc2)[C@@H](C)CN([C@@H](C)CO)C(=O)c2cc(NS(=O)(=O)c3ccc(Cl)cc3)ccc2O1
AC50 [28]: 53.5 µM (active) | AC50 [29]: 43.7 µM (active) | AC50 [30]: 27.4 µM (active) | AC50 [31]: 7.31 µM (active)

N#C/C(=C\c1ccc(-c2ccc(C(=O)O)cc2)o1)c1nc2ccccc2[nH]1
IC50 [32]: 51.3 µM (active)

Fc1cc(Br)ccc1CBr
IC50 [33]: > 33.3 µM (inactive) | IC50 [34]: > 40 µM (inactive) | IC50 [35]: > 40 µM (inactive)

COc1ccc(C)cc1N
AC50 [8]: 31.6 µM (inconclusive)

COc1ccc2c(c1)C(=O)N(CCc1ccc(S(=O)(=O)NC(=O)NC3CCCCC3)cc1)C(=O)C2(C)C [GLIQUIDONE]
IC50 [33]: 0.23 µM (active) | AC50 [36]: 12.6 µM (inconclusive)

FC(F)(F)C(F)(F)C(F)(F)C(F)(F)C(F)(F)C(F)(F)C(F)(F)C(F)(F)Br [PERFLUBRON]
IC50 [33]: > 33.3 µM (inactive) | IC50 [34]: > 40 µM (inactive) | IC50 [35]: > 40 µM (inactive)
